This test addresses T1, full-length beta-Catenin (Uniprot ID P35222) (Homo sapiens, UniProt P35222).
T1 construct: 10 nM full-length beta-Catenin (Uniprot ID P35222)
T1 sequence (P35222 1-781): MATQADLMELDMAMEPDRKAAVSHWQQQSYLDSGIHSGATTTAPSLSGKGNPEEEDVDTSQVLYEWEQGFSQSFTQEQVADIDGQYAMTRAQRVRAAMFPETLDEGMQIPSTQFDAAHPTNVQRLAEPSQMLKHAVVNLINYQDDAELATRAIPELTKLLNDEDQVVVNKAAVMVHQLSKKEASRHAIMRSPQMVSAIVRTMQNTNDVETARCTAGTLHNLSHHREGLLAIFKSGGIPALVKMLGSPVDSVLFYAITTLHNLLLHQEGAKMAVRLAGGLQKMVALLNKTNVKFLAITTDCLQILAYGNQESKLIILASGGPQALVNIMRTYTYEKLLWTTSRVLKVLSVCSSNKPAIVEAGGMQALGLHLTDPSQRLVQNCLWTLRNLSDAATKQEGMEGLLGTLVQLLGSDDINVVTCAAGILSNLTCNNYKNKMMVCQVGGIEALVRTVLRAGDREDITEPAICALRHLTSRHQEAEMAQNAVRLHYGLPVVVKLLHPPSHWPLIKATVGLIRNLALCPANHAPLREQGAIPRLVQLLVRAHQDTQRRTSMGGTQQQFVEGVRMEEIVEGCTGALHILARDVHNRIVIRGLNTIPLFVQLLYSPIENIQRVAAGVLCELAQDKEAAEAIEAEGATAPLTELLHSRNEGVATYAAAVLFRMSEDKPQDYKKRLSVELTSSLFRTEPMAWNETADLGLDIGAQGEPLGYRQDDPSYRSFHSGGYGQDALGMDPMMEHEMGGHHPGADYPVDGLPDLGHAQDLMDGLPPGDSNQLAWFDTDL
Briefly: Fluorescence polarization IC50 (beta-catenin / 5FAM-TCF4 10-53 competition). Conditions: fluorescence polarization; read-out: beta-Catenin FP IC50. The class given is binding.

For `CC(=O)N1CCC[C@]12CC=CCCCC1(CCCC=CCCCCCC[C@@](C)(C(=O)N[C@@H](Cc3ccsc3)C(=O)N[C@@H](Cc3csc4ccccc34)C(=O)N[C@@H](CCC(N)=O)C(N)=O)NC(=O)[C@H](CC(N)=O)NC(=O)[C@H](Cc3ccccc3)NC(=O)[C@H](C)NC(=O)[C@H](C)NC(=O)[C@H](CC(=O)O)NC(=O)[C@H](CC(=O)O)NC1=O)NC(=O)[C@H](CC(C)(C)C)NC(=O)[C@H](CC(=O)O)N(C)C2=O` (stereo partly drawn) [I-1165, Ac-PL3-NMeD-Npg-B5-Asp-Asp-Ala-Ala-Phe-Asn-S8-3Thi-BztA-Gln-NH2], the concentration for half-maximal inhibition (IC50) turned out to be 0.722 µM.
On to `CC(=O)N1CCC[C@]12CC=CCCCC1(CCCC=CCCCOC(=O)N3CC[C@@](C(=O)N[C@@H](Cc4ccsc4)C(=O)N[C@@H](Cc4csc5ccccc45)C(=O)N[C@@H](CCC(N)=O)C(N)=O)(C3)NC(=O)[C@H](CC(N)=O)NC(=O)[C@H](Cc3ccccc3)NC(=O)[C@H](C)NC(=O)[C@H](C)NC(=O)[C@H](CC(=O)O)NC(=O)[C@H](CC(C)C)NC1=O)NC(=O)[C@H](CC(C)(C)C)NC(=O)[C@H](CC(=O)O)NC2=O` (stereo partly drawn) [I-1212, Ac-PL3-Asp-Npg-B5-Leu-Asp-Ala-Ala-Phe-Asn-PyrS2-3Thi-BztA-Gln-NH2], for which the concentration for half-maximal inhibition (IC50) stood at 8.66 µM.
Next, `CC(=O)N1CCC[C@]12CC=CCCCC1(CCCC=CCCCOC(=O)N3CC[C@@](C(=O)N[C@@H](Cc4ccsc4)C(=O)N[C@@H](Cc4csc5ccccc45)C(=O)N[C@@H](CCC(N)=O)C(N)=O)(C3)NC(=O)[C@H](CC(N)=O)NC(=O)[C@H](Cc3ccccc3)NC(=O)[C@H](C)NC(=O)[C@H](C)NC(=O)[C@H](CC(=O)O)NC(=O)[C@H](CC(=O)O)NC1=O)NC(=O)[C@H](CC(C)(C)C)NC(=O)[C@H](CO)NC2=O` (stereo partly drawn) [I-1222, Ac-PL3-Ser-Npg-B5-Asp-Asp-Ala-Ala-Phe-Asn-PyrS2-3Thi-BztA-Gln-NH2]: 0.511 µM; `CC(=O)N1CCC[C@]12CC=CCCCC1(CCCC=CCCCOC(=O)N3CC[C@@](C(=O)N[C@@H](Cc4ccsc4)C(=O)N[C@@H](Cc4csc5ccccc45)C(=O)N[C@@H](CCC(N)=O)C(N)=O)(C3)NC(=O)[C@H](CC(C)C)NC(=O)[C@H](Cc3ccccc3)NC(=O)[C@H](C)NC(=O)[C@H](C)NC(=O)[C@H](CC(=O)O)NC(=O)[C@H](CC(=O)O)NC1=O)NC(=O)[C@H](CC(C)(C)C)NC(=O)[C@H](CO)NC2=O` (stereo partly drawn) [I-1223, Ac-PL3-Ser-Npg-B5-Asp-Asp-Ala-Ala-Phe-Leu-PyrS2-3Thi-BztA-Gln-NH2]: 0.55 µM.
Next, `CC(=O)N1CCC[C@]12CC=CCCCC1(CCCC=CCCCOC(=O)N3CC[C@@](C(=O)N[C@@H](Cc4ccsc4)C(=O)N[C@@H](Cc4csc5ccccc45)C(=O)N[C@@H](CCC(N)=O)C(N)=O)(C3)NC(=O)[C@H](CC(N)=O)NC(=O)[C@H](Cc3ccccc3)NC(=O)[C@H](C)NC(=O)[C@H](C)NC(=O)[C@H](CC(=O)O)NC(=O)[C@H](CC(=O)O)NC1=O)NC(=O)[C@H](CC(C)(C)C)NC(=O)[C@H](CCC(N)=O)NC2=O` (stereo partly drawn) [I-1224, Ac-PL3-Gln-Npg-B5-Asp-Asp-Ala-Ala-Phe-Asn-PyrS2-3Thi-BztA-Gln-NH2]: 0.389 µM.
In the case of `CC(=O)N1CCC[C@]12CC=CCCCC1(CCCC=CCCCOC(=O)N3CC[C@@](C(=O)N[C@@H](Cc4ccsc4)C(=O)N[C@@H](Cc4csc5ccccc45)C(=O)N[C@@H](CCC(N)=O)C(N)=O)(C3)NC(=O)[C@H](CC(C)C)NC(=O)[C@H](Cc3ccccc3)NC(=O)[C@H](C)NC(=O)[C@H](C)NC(=O)[C@H](CC(=O)O)NC(=O)[C@H](CC(=O)O)NC1=O)NC(=O)[C@H](CC(C)(C)C)NC(=O)[C@H](CCC(N)=O)NC2=O` (stereo partly drawn) [I-1225, Ac-PL3-Gln-Npg-B5-Asp-Asp-Ala-Ala-Phe-Leu-PyrS2-3Thi-BztA-Gln-NH2], the IC50 amounted to 0.305 µM.
Next, `CC(=O)N1CCC[C@]12CC=CCCCC1(CCCC=CCCCOC(=O)N3CC[C@@](C(=O)N[C@@H](Cc4ccsc4)C(=O)N[C@@H](Cc4csc5ccccc45)C(=O)N[C@@H](CCC(N)=O)C(N)=O)(C3)NC(=O)[C@H](CC(N)=O)NC(=O)[C@H](Cc3ccccc3)NC(=O)[C@H](C)NC(=O)[C@H](C)NC(=O)[C@H](CC(=O)O)NC(=O)[C@H](CC(=O)O)NC1=O)NC(=O)[C@H](CC(C)(C)C)NC(=O)[C@H](CC(C)C)NC2=O` (stereo partly drawn) [I-1226, Ac-PL3-Leu-Npg-B5-Asp-Asp-Ala-Ala-Phe-Asn-PyrS2-3Thi-BztA-Gln-NH2]: 0.559 µM; `CC(=O)N1CCC[C@]12CC=CCCCC1(CCCC=CCCCOC(=O)N3CC[C@@](C(=O)N[C@@H](Cc4ccsc4)C(=O)N[C@@H](Cc4csc5ccccc45)C(=O)N[C@@H](CCC(N)=O)C(N)=O)(C3)NC(=O)[C@H](CC(N)=O)NC(=O)[C@H](Cc3ccccc3)NC(=O)[C@H](C)NC(=O)[C@H](C)NC(=O)[C@H](CC(=O)O)NC(=O)[C@H](CC(=O)O)NC1=O)NC(=O)[C@H](CC(C)(C)C)NC(=O)[C@H](CCO)NC2=O` (stereo partly drawn) [I-1228, Ac-PL3-Hse-Npg-B5-Asp-Asp-Ala-Ala-Phe-Asn-PyrS2-3Thi-BztA-Gln-NH2]: 0.1 µM; `CC(=O)N1CCC[C@]12CC=CCCCC1(CCCC=CCCCOC(=O)N3CC[C@@](C(=O)N[C@@H](Cc4ccsc4)C(=O)N[C@@H](Cc4csc5ccccc45)C(=O)N[C@@H](CCC(N)=O)C(N)=O)(C3)NC(=O)[C@H](CC(C)C)NC(=O)[C@H](Cc3ccccc3)NC(=O)[C@H](C)NC(=O)[C@H](C)NC(=O)[C@H](CC(=O)O)NC(=O)[C@H](CC(=O)O)NC1=O)NC(=O)[C@H](CC(C)(C)C)NC(=O)[C@H](CCO)NC2=O` (stereo partly drawn) [I-1229, Ac-PL3-Hse-Npg-B5-Asp-Asp-Ala-Ala-Phe-Leu-PyrS2-3Thi-BztA-Gln-NH2]: 0.134 µM.
Next, `CC(=O)N1CCC[C@]12CC=CCCCC1(CCCC=CCCCOC(=O)N3CC[C@@](C(=O)N[C@@H](Cc4ccccc4Cl)C(=O)N[C@@H](Cc4csc5ccccc45)C(=O)N[C@H](CO)CC(C)C)(C3)NC(=O)[C@H]([C@@H](C)O)NC(=O)[C@H](Cc3ccccc3)NC(=O)[C@H](C)NC(=O)[C@H](C)NC(=O)[C@H](CN(CC(=O)O)CC(F)(F)F)NC(=O)[C@H](CC(=O)O)NC1=O)NC(=O)[C@H](CC(C)(C)C)NC(=O)[C@H](CC(=O)O)NC2=O` (stereo partly drawn) [I-1243, Ac-PL3-Asp-Npg-B5-Asp-TfeGA-Ala-Ala-Phe-Thr-PyrS2-2C1F-BztA-Leuo1]: 0.082 µM; `CC(=O)N1CCC[C@]12CC=CCCCC1(CCCC=CCCCOC(=O)N3CC[C@@](C(=O)N[C@@H](Cc4ccccc4Cl)C(=O)N[C@@H](Cc4csc5ccccc45)C(=O)N[C@H](CO)CC(C)C)(C3)NC(=O)[C@H](CC(C)C)NC(=O)[C@H](Cc3ccccc3)NC(=O)[C@H](C)NC(=O)[C@H](C)NC(=O)[C@H](CC(=O)O)NC(=O)[C@H](CC(=O)O)NC1=O)NC(=O)[C@H](CC(C)(C)C)NC(=O)[C@H](CC(=O)O)NC2=O` (stereo partly drawn) [I-1251, Ac-PL3-Asp-Npg-B5-Asp-Asp-Ala-Ala-Phe-Leu-PyrS2-2C1F-BztA-Leuo1]: 1.94 µM; `CCCCCCCC(=O)N1CCC[C@]12CC=CCCCC1(CCCC=CCCCCCC[C@@](C)(C(=O)N[C@@H](Cc3ccccc3Cl)C(=O)N[C@@H](Cc3csc4ccccc34)C(=O)N[C@@H](CCC(N)=O)C(N)=O)NC(=O)[C@H]([C@@H](C)O)NC(=O)[C@H](Cc3ccccc3)NC(=O)[C@H](C)NC(=O)[C@H](C)NC(=O)[C@H](CC(=O)O)NC(=O)[C@H](CC(=O)O)NC1=O)NC(=O)[C@H](CC(C)(C)C)NC(=O)[C@H](CC(=O)O)NC2=O` (stereo partly drawn) [I-1254, Oct-PL3-Asp-Npg-B5-Asp-Asp-Ala-Ala-Phe-Thr-S8-2C1F-BztA-Gln-NH2]: 0.53 µM.
Next, `CC(=O)N1CCC[C@]12CC=CCCCC1(CCCC=CCCOC(=O)N3CC[C@@](C(=O)N[C@@H](Cc4ccccc4Cl)C(=O)N[C@@H](Cc4csc5ccccc45)C(=O)N[C@@H](C(N)=O)[C@H](C)O)(C3)NC(=O)[C@H](CC(N)=O)NC(=O)[C@H](Cc3ccccc3)NC(=O)[C@H](C)NC(=O)[C@H](C)NC(=O)[C@H](CC(=O)O)NC(=O)[C@H](CC(=O)O)NC1=O)NC(=O)[C@H](CC(C)(C)C)NC(=O)[C@H](CC(=O)O)NC2=O` (stereo partly drawn) [I-1256, Ac-PL3-Asp-Npg-B5-Asp-Asp-Ala-Ala-Phe-Asn-PyrS1-2C1F-BztA-dThr-NH2]: 1.47 µM; `CC(=O)N1CCC[C@]12CC=CCCCC1(CCCC=CCCCOC(=O)N3CC[C@@](C(=O)N[C@@H](Cc4ccsc4)C(=O)N[C@@H](Cc4csc5ccccc45)C(=O)N[C@@H](CCC(N)=O)C(=O)NCc4ccccc4)(C3)NC(=O)[C@H](CC(N)=O)NC(=O)[C@H](Cc3ccccc3)NC(=O)[C@H](C)NC(=O)[C@H](C)NC(=O)[C@H](CC(=O)O)NC(=O)[C@H](CC(=O)O)NC1=O)NC(=O)[C@H](CC(C)(C)C)NC(=O)[C@H](CC(=O)O)NC2=O` (stereo partly drawn) [I-1257, Ac-PL3-Asp-Npg-B5-Asp-Asp-Ala-Ala-Phe-Asn-PyrS2-3Thi-BztA-Gln-NHBn]: 0.011 µM.
Take `C[C@@H]1NC(=O)[C@H](C)NC(=O)[C@H](CC(=O)O)NC(=O)[C@H](CC(=O)O)NC(=O)C2(CCCC=CCCCOC(=O)N3CC[C@@](C(=O)N[C@@H](Cc4ccccc4)C(=O)N[C@@H](Cc4csc5ccccc45)C(=O)N[C@@H](CO)C(N)=O)(C3)NC(=O)[C@H](CO)NC(=O)[C@H](Cc3ccccc3)NC1=O)CCCC=CC[C@]1(CCCN1C(=O)CCCN(C)C)C(=O)N[C@@H](CC(=O)O)C(=O)N[C@@H](CC(C)(C)C)C(=O)N2` (stereo partly drawn) [I-1354, NdiMeButC-PL3-Asp-Npg-B5-Asp-Asp-Ala-Ala-Phe-Ser-PyrS2-Phe-BztA-Ser-NH2]: the IC50 was 0.048 µM.
